Tests used:
[1] = EGCG absorbability in rats, mixed administration solutions (Test Example 8); format: in vivo; conditions: oral, 1 mM EGCG, Fisher's PLSD
From the text: The reason why the significant differences are found in EGCG absorbability between the Camellia sinensis (L.) O. Kuntze extracts and the usual green tea extracts although both are extracts obtained by the same hot-water extraction procedures is probably that substances contained in the extracts differ from each other. That is, the green tea extracts may contain an ingredient which inhibits EGCG absorption, or the Camellia sinensis (L.) O. Kuntze extracts may contain an ingredient which promotes EGCG absorption. In order to gain the chance of investigation of the possibility, an experiment shown in this test example was performed. Specifically, a Camellia sinensis (L.) O. Kuntze extract solution, a usual green tea extract solution, and an EGCG reagent solution were prepared so as to have the same EGCG concentration, and solutions obtained by mixing the solutions in appropriate combination were administered to rats to investigate changes in EGCG absorbability. […] In the same manner as in Test Example 7, the administration solutions were orally administered forcibly to rats mounted with a cannula in the vein, and EGCG concentrations in plasma obtained by blood collection performed with time after administration were measured and converted into areas under curve to compare amounts of EGCG remaining in blood. […]

Caco-2 cell monolayer = assay: Transepithelial electrical resistance (TEER) of the Caco-2 cell monolayer; format: cell-based, human; conditions: EGCG reagent added at different concentrations to the chorionic side, 3-hour measurement period
Method: The EGCG absorption experiment was performed using a Caco-2 cell monolayer cultured on a Transwell with a diameter of 12 mm (polycarbonate filter culture area: 1.13 cm^2, pore size: 0.4 μm; manufactured by Corning). The Caco-2 cells were inoculated onto an insert of the Transwell at a density of 1.0×10^5 cells/cm^2, and culture was continued while the medium was exchanged for a fresh one every 2 days. Transepithelial electrical resistance (hereinafter, referred to as “TEER”) was measured using a Millicell ERS meter (manufactured by Millipore) to monitor the degree of completion of a tight junction of the cell monolayer, and a monolayer which had been confirmed that formation of the tight junction had been completed was used in the experiment. […]
The medium of the upper part of the Transwell insert on which the Caco-2 cell monolayer was placed (chorionic side) was replaced by a Hanks' Balanced Salt Solution-like Transport Medium having a pH of 5.5 (chorionic side HBSS solution; containing 10 mM MES, 5 mM glucose, 10 mM glutamine, and 1 mM ascorbic acid), and the medium of the lower part of the insert (serosal side) was replaced by HBSS having a pH of 7.4 (serosal side HBSS solution; containing […], 5 mM glucose, 10 mM glutamine, and 1 mM ascorbic acid). […] The cells were incubated for 30 minutes, and TEER was measured again. […]

[2] = EGCG in rat plasma after oral administration of green tea extract solution with serine and malic acid (Test Example 4); format: in vivo, rats; conditions: rat plasma after administration solutions (i) to (iv)
Method: The final EGCG concentration derived from the green tea extract contained in each administration solution was adjusted to 1 mM. […] During the recuperation period, the rats were fed individually in cages equipped with floor nets and allowed to ingest CE-2 feed (manufactured by CLEA Japan, Inc.) freely. […] The EGCG concentration in plasma was measured as follows: […] Isocratic elution was performed at a sample injection volume to the column of 20 μL using 0.1% phosphoric acid containing 0.1 mM EDTA·2Na:acetonitrile=90:10 as the mobile phase at a flow rate of 0.4 mL/min. […] The retention time of the EGCG standard substance was 8.0 minutes, and the detection sensitivity was 2 nM. The EGCG concentrations in actual administration solutions were also analyzed again, and it was confirmed that EGCG was administered to the rats in scheduled amounts. Rat plasma collected after administration of each of the administration solutions (i), (ii), (iii), and (iv) was treated and subjected to HPLC analysis as mentioned above. […] In other words, it was considered that most of EGCG in blood was absorbed in blood as an unconjugated free body.

[3] = EGCG absorbability in rats, Camellia sinensis (L.) O. Kuntze extracts versus green tea extracts (Test Example 7); format: in vivo; conditions: rat plasma
From the text: For Camellia sinensis (L.) O. Kuntze extracts (Camellia sinensis (L.) O. Kuntze tea hot water extract manufactured by ASAHI SOFT DRINKS CO., Ltd.; lot 1 [i], lot 2 [ii], and lot 3 [iii]) and green tea extracts (green tea hot water extract manufactured by San-Ei Gen F.F.I., Inc.; lot 4 [iv] and lot 5 [v]), absorbability of EGCG by rats were compared. […] During the recuperation period, the rats were fed individually in cages equipped with floor nets and allowed to ingest CE-2 feed (manufactured by CLEA Japan, Inc.) freely. The numbers of samples of the administration solutions are as follows: [i] Camellia sinensis (L.) O. Kuntze extract lot 1-administered group: n=7; [ii] Camellia sinensis (L.) O. Kuntze extract lot 2-administered group: n=7; [iii] Camellia sinensis (L.) O. Kuntze extract lot 3-administered group: n=6; [iv] green tea extract lot 4-administered group:n=5; and [v] green tea extract lot 5-administered group: n=4. […] The EGCG concentration in plasma was measured in the same manner as in Test Example 4. […] Isocratic elution was performed at a sample injection volume to the column of 20 μL using 0.1% phosphoric acid containing 0.1 mM EDTA·2Na:acetonitrile=90:10 as the mobile phase at a flow rate of 0.4 mL/min. […] The EGCG concentrations in actual administration solutions were also analyzed again, and it was confirmed that EGCG was administered to the rats in scheduled amounts. […]

[4] = Stability of EGCG in the chorionic side HBSS solution; format: physicochemical; conditions: chorionic side HBSS solution with 1 mM ascorbic acid, pH 5.5
Method: In addition, the EGCG absorption capacity of the Caco-2 cells was maintained constantly for 4 hours or more by adding 10 mM glutamine to the HBSS solutions of the chorionic side and serosal side in the measurement system.

Caco-2 cells = assay: In vitro EGCG absorption measurement system, Caco-2 cell monolayer on Transwell (Papp of EGCG, chorionic to serosal side)
Method: An orally-ingested polyphenol compound, in particular, catechin compound is considered to be absorbed mainly in the intestinal tract, especially the small intestine in the body. […]
The Caco-2 cells were cultured in the presence of humidified air containing 5% CO2 in a Dulbecco's modified Eagle medium (DMEM, pH 7.4; manufactured by GIBCO) containing 10% inactivated fetal bovine serum (manufactured by HyClone), 50 U/mL penicillin-50 μg/mL streptomycin (manufactured by GIBCO), and a 1% non-essential amino acid (manufactured by GIBCO) in a plastic flask of 75 cm^2. The cells were maintained by performing subculture every 5 to 8 days when the cells reached 80 to 90% confluence. An EGCG absorption experiment to be described below was performed using Caco-2 cells which had been subcultured 30 to 70 times.
The EGCG absorption experiment was performed using a Caco-2 cell monolayer cultured on a Transwell with a diameter of 12 mm (polycarbonate filter culture area: 1.13 cm^2, pore size: 0.4 μm; manufactured by Corning). […] Transepithelial electrical resistance (hereinafter, referred to as “TEER”) was measured using a Millicell ERS meter (manufactured by Millipore) to monitor the degree of completion of a tight junction of the cell monolayer, and a monolayer which had been confirmed that formation of the tight junction had been completed was used in the experiment. […]

[5] = Catechin compounds in human plasma after Camellia sinensis (L.) O. Kuntze extract with sodium malate (Test Example 9); format: in vivo; conditions: humans, 135 mg with Camellia sinensis (L.) O. Kuntze extract (195 mg catechin compounds), oral; total of five catechin compounds
Method: The effect of malic acid on absorption of a catechin compound in humans was examined. Five healthy men and women which were 20 years old or more and less than 65 years old were selected as test subjects, and a test was performed on the effect of increasing the amount of the catechin compound remaining in blood by ingesting sodium malate simultaneously with the Camellia sinensis (L.) O. Kuntze extract. […]
The test was performed by a crossover test as described below. […] In the same manner as in Test Example 4, concentrations of the catechin compounds in plasma were measured by the HPLC-ECD method (electrochemical detection method). […] As the second phase, concentrations of the catechin compounds in plasma were measured under the same conditions as those in the first phase except that each subject ingested the control substance. It should be noted that the concentrations of the catechin compounds were determined as a total concentration of five kinds of catechin compounds including EGCG, 3″-O-methylepigallocatechin gallate, epigallocatechin, epicatechin gallate, and epicatechin.

Difference in mean values, EGCG concentrations in plasma × time (areas under curve) ([1]; labelled solution vs [ii] EGCG reagent + green tea extract) | Difference in mean values, EGCG concentrations in plasma × time (areas under curve) ([1]; labelled solution vs [iii] Camellia sinensis (L.) O. Kuntze extract + green tea extract) | TEER during the measurement period (Caco-2 cell monolayer) | Change in EGCG concentration in plasma before and after deconjugation treatments with β-glucuronidase and sulfatase [2] | Change in EGCG concentrations in plasma before and after the deconjugation treatment with β-glucuronidase and sulfatase [3] | Stability of EGCG during the absorption experiment period [4] | Structure (SMILES) | EGCG absorbed in the form of a conjugate (deconjugation treatment of EGCG permeated to the serosal side) (Caco-2 cells) | AUC0→4h of total catechins in plasma relative to ingestion of no sodium malate [5]
0.0052 | 0.0009 | maintained well | no changes | not changed | maintained completely and stably | O=C(O[C@@H]1Cc2c(O)cc(O)cc2O[C@@H]1c1cc(O)c(O)c(O)c1)c1cc(O)c(O)c(O)c1 [EGCG, epigallocatechin gallate] | no EGCG absorbed in the form of a conjugate | 
 |  |  |  |  |  | O=C([O-])CC(O)C(=O)[O-].[Na+].[Na+] (centres unmarked) [sodium malate] |  | 1.6 times
